Experimental data: patent publication US20240424113A1, “CONJUGATES COMPRISING ANTIFUNGALS AND HEAT SHOCK PROTEIN 90 (HSP90) INHIBITORS AND METHODS OF USE THEREOF” (Bright Angel Therapeutics Inc., priority 2021, published 2024)
Converted amounts (≈) assume the structure as drawn.

How the values were obtained:
HepG2 cells = assay: Mammalian cell toxicity (Cell Titer-Glo); format: cell-based
Experimental: Mammalian Cell Toxicity. HepG2 cells were seeded overnight at 500 cells/well in 384-well plate, then incubated with compounds (10-point concentration titration) for 48 h. Cell Titer-Glo® reagent ([…]) was added to each well and after 10-minute incubation at room temperature the luminescent signal was measured using an Envision plate reader (Perkin Elmer).

[1] = biological target: Hsp90 Nuclear Binding Domain (NBD) (Candida albicans (strain SC5314 / ATCC MYA-2876) (Yeast), UniProt P46598); assay: Surface Plasmon Resonance (SPR) binding, C. albicans Hsp90 NBD; conditions: biotinylated Hsp90 NBD on streptavidin chip, 25° C., 1:1 binding model
Sequence of Hsp90 Nuclear Binding Domain (NBD) (Candida albicans (strain SC5314 / ATCC MYA-2876) (Yeast), UniProt P46598) (P46598 1-218 limits assumed): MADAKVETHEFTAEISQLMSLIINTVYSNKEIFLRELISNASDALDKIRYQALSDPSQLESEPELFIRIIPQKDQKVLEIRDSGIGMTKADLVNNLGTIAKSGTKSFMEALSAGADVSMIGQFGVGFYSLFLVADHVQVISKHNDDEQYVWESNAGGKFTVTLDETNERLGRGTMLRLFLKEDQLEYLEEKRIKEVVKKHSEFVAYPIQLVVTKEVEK
Procedure, shortened: (§1)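 Biacore S200 at 25° C; AviTag-biotinylated recombinant Hsp90 NBD captured on streptavidin chip at 2000-2500 RU. Compound dilution series run in HBS-P pH 7.4 with 2% DMSO at 40 μL/min, 60 s association and 600 s dissociation. Sensorgrams fitted to a 1:1 binding model.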

CaCl2 = assay: Antifungal sensitivity testing (broth microdilution MIC); format: cell-based; conditions: 96-well broth microdilution
Procedure, shortened: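 Broth microdilution MIC per a modified published protocol; compounds dissolved in DMSO, fluconazole in water; duplicates in at least two independent experiments. Fungicidal activity checked by spotting MIC-plate cultures onto YPD agar, read after 24 h at 30° C.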

[2] = biological target: Hsp90 Nuclear Binding Domain (NBD) (Aspergillus fumigatus, UniProt P40292); assay: Surface Plasmon Resonance (SPR) binding, A. fumigatus Hsp90 NBD; conditions: biotinylated Hsp90 NBD on streptavidin chip, 25° C., 1:1 binding model; NB undefined
Sequence of Hsp90 Nuclear Binding Domain (NBD) (Aspergillus fumigatus, UniProt P40292) (P40292 whole entry, looked up, the tested form may be a part): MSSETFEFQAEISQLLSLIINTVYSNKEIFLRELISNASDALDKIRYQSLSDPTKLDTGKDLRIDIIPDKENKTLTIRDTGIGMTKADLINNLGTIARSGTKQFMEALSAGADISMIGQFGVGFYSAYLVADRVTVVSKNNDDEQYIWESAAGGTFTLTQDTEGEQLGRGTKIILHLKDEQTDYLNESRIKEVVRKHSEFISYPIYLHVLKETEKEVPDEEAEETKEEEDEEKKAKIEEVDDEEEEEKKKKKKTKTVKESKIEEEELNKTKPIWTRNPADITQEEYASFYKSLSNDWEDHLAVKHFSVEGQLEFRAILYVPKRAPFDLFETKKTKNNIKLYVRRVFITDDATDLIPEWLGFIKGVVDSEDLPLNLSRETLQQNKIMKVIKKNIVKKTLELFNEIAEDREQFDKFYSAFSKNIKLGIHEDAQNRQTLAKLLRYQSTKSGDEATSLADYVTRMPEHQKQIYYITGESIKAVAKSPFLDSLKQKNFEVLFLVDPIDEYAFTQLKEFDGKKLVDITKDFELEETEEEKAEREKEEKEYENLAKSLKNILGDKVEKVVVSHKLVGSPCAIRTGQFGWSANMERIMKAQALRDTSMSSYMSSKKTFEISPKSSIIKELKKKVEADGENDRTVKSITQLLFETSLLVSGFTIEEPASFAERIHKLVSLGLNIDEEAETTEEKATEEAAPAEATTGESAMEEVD
Procedure, shortened: as §1

Row | SMILES | HepG2 MIC50 (HepG2 cells; Table 5, 48 h incubation) | HepG2 MIC50 (HepG2 cells; Table 6, 48 h incubation) | Kd [1] | MIC50 (CaCl2; Table 4) | MIC50 (CaCl2; Table 6) | Kd [2]
1 | Nc1nc2sc(C(=O)NC3CCN(CC(O)(Cn4cncn4)c4ccc(F)cc4F)CC3)cc2n(-c2ccc3c(c2)N(c2ccccc2)CCO3)c1=O (centres unmarked) [Compound I-4, 3-amino-N-(1-(2-(2,4-difluorophenyl)-2-hydroxy-3-(1H-1,2,4-triazol-1-yl)propyl)piperidin-4-yl)-2-oxo-1-(4-phenyl-3,4-dihydro-2H-benzo[b][1,4]oxazin-6-yl)-1,2-dihydrothieno[2,3-b]pyrazine-6-carboxamide] | >10 µM | >10 µM | 28 nM | 0.75 µM (≈ 0.555 µg/mL) | 0.75 µM (≈ 0.555 µg/mL) | 113 nM
2 | Nc1nc2sc(C(=O)N[C@@H]3CCN(C[C@@](O)(Cn4cncn4)c4ccc(F)cc4F)C3)cc2n(-c2ccc3c(c2)N(c2ccccc2)CCO3)c1=O [Compound I-11, 3-amino-N-((R)-1-((R)-2-(2,4-difluorophenyl)-2-hydroxy-3-(1H-1,2,4-triazol-1-yl)propyl)pyrrolidin-3-yl)-2-oxo-1-(4-phenyl-3,4-dihydro-2H-benzo[b][1,4]oxazin-6-yl)-1,2-dihydrothieno[2,3-b]pyrazine-6-carboxamide] | – | 2.4 µM | 0.8 nM | 2.5 µM (≈ 1.81 µg/mL) | 2.5 µM (≈ 1.81 µg/mL) | 24.8 nM
3 | Cc1ccc(-n2c(=O)c(N)nc3sc(C(=O)NC4CCN(CC(O)(Cn5cncn5)c5ccc(F)cc5F)CC4)cc32)cc1Oc1ccccc1 (centres unmarked) [Compound I-12, 3-amino-N-(1-(2-(2,4-difluorophenyl)-2-hydroxy-3-(1H-1,2,4-triazol-1-yl)propyl)piperidin-4-yl)-1-(4-methyl-3-phenoxyphenyl)-2-oxo-1,2-dihydrothieno[2,3-b]pyrazine-6-carboxamide] | >10 µM | >10 µM | 146 nM | 0.18 µM (≈ 0.128 µg/mL) | 0.18 µM (≈ 0.128 µg/mL) | 431 nM
4 | Nc1nc2scc(C(=O)NC3CCN(CC(O)(Cn4cncn4)c4ccc(F)cc4F)CC3)c2n(-c2ccc3c(c2)N(c2ccccc2)CCO3)c1=O (centres unmarked) [Compound I-18, 3-amino-N-(1-(2-(2,4-difluorophenyl)-2-hydroxy-3-(1H-1,2,4-triazol-1-yl)propyl)piperidin-4-yl)-2-oxo-1-(4-phenyl-3,4-dihydro-2H-benzo[b][1,4]oxazin-6-yl)-1,2-dihydrothieno[2,3-b]pyrazine-7-carboxamide] | – | >50 µM | 459 nM | 20 µM (≈ 14.8 µg/mL) | 20 µM (≈ 14.8 µg/mL) | 741 nM
5 | Nc1nc2sc(C(=O)NC3CCN(C[C@](O)(Cn4cncn4)c4ccc(F)cc4F)CC3)cc2n(-c2ccc3c(c2)N(c2ccccc2)CCC3)c1=O [Compound I-21, (S)-3-amino-N-(1-(2-(2,4-difluorophenyl)-2-hydroxy-3-(1H-1,2,4-triazol-1-yl)propyl)piperidin-4-yl)-2-oxo-1-(1-phenyl-1,2,3,4-tetrahydroquinolin-7-yl)-1,2-dihydrothieno[2,3-b]pyrazine-6-carboxamide] | >50 µM | >50 µM | 6.7 nM | 0.085 µM (≈ 0.0627 µg/mL) | 0.09 µM (≈ 0.0664 µg/mL) | 37.3 nM
6 | Nc1nc2sc(C(=O)NC3CCN(C[C@](O)(Cn4cncn4)c4ccc(F)cc4F)CC3)cc2n(-c2ccc3ccn(-c4ccccc4)c3c2)c1=O [Compound I-23, (S)-3-amino-N-(1-(2-(2,4-difluorophenyl)-2-hydroxy-3-(1H-1,2,4-triazol-1-yl)propyl)piperidin-4-yl)-2-oxo-1-(1-phenyl-1H-indol-6-yl)-1,2-dihydrothieno[2,3-b]pyrazine-6-carboxamide] | >50 µM | >50 µM | 28.6 nM | 0.35 µM (≈ 0.253 µg/mL) | 0.35 µM (≈ 0.253 µg/mL) | 46 nM
7 | Nc1nc2sc(C(=O)NC[C@H]3CO[C@](Cn4cncn4)(c4ccc(F)cc4F)C3)cc2n(-c2ccc3c(c2)N(c2ccccc2)CCO3)c1=O [Compound I-27, N-(((3S,5S)-5-((1H-1,2,4-triazol-1-yl)methyl)-5-(2,4-difluorophenyl)tetrahydrofuran-3-yl)methyl)-3-amino-2-oxo-1-(4-phenyl-3,4-dihydro-2H-benzo[b][1,4]oxazin-6-yl)-1,2-dihydrothieno[2,3-b]pyrazine-6-carboxamide] | – | >10 µM | 9.2 nM | 2.5 µM (≈ 1.74 µg/mL) | 2.5 µM (≈ 1.74 µg/mL) | 13.4 nM
8 | CC1(NC(=O)c2cc3c(nc(N)c(=O)n3-c3ccc4c(c3)N(c3ccccc3)CCO4)s2)CCN(CC(O)(Cn2cncn2)c2ccc(F)cc2F)CC1 (centres unmarked) [Compound I-31, 3-amino-N-(1-(2-(2,4-difluorophenyl)-2-hydroxy-3-(1H-1,2,4-triazol-1-yl)propyl)-4-methylpiperidin-4-yl)-2-oxo-1-(4-phenyl-3,4-dihydro-2H-benzo[b][1,4]oxazin-6-yl)-1,2-dihydrothieno[2,3-b]pyrazine-6-carboxamide] | 4.6 µM | 4.6 µM | 0.3 nM | 1 µM (≈ 0.754 µg/mL) | 1 µM (≈ 0.754 µg/mL) | 2.3 nM
9 | Nc1nc2sc(C(=O)NC3CCN(CC4COC(Cn5cncn5)(c5ccc(F)cc5F)C4)CC3)cc2n(-c2ccc3c(c2)N(c2ccccc2)CCO3)c1=O (centres unmarked) [Compound I-32, N-(1-((5-((1H-1,2,4-triazol-1-yl)methyl)-5-(2,4-difluorophenyl)tetrahydrofuran-3-yl)methyl)piperidin-4-yl)-3-amino-2-oxo-1-(4-phenyl-3,4-dihydro-2H-benzo[b][1,4]oxazin-6-yl)-1,2-dihydrothieno[2,3-b]pyrazine-6-carboxamide] | – | 8.2 µM | 3.6 nM | 2.5 µM (≈ 1.95 µg/mL) | 2.5 µM (≈ 1.95 µg/mL) | 50.5 nM
10 | Nc1nc2sc(C(=O)N[C@@H]3CCN(CCC(O)(Cn4cncn4)c4ccc(F)cc4F)C3)cc2n(-c2ccc3c(c2)N(c2ccccc2)CCO3)c1=O (stereo partly drawn) [Compound I-36, 3-amino-N-((3R)-1-(3-(2,4-difluorophenyl)-3-hydroxy-4-(1H-1,2,4-triazol-1-yl)butyl)pyrrolidin-3-yl)-2-oxo-1-(4-phenyl-3,4-dihydro-2H-benzo[b][1,4]oxazin-6-yl)-1,2-dihydrothieno[2,3-b]pyrazine-6-carboxamide] | – | 1.9 µM | 2.1 nM | 8 µM (≈ 5.92 µg/mL) | 8 µM (≈ 5.92 µg/mL) | 3.7 nM
11 | Nc1nc2sc(CNC3CCN(CC(O)(Cn4cncn4)c4ccc(F)cc4F)CC3)cc2n(-c2ccc3c(c2)N(c2ccccc2)CCO3)c1=O (centres unmarked) [Compound I-47, 3-amino-6-(((1-(2-(2,4-difluorophenyl)-2-hydroxy-3-(1H-1,2,4-triazol-1-yl)propyl)piperidin-4-yl)amino)methyl)-1-(4-phenyl-3,4-dihydro-2H-benzo[b][1,4]oxazin-6-yl)thieno[2,3-b]pyrazin-2(1H)-one] | 4.4 µM | 4.4 µM | 289 nM | 1 µM (≈ 0.726 µg/mL) | 1 µM (≈ 0.726 µg/mL) | 550 nM
12 | CC1(NC(=O)c2cc3c(nc(N)c(=O)n3-c3ccc4c(c3)N(c3ccccc3)CCO4)s2)CCN(C[C@](O)(Cn2cncn2)c2ccc(F)cc2F)CC1 [Compound I-53, (S)-3-amino-N-(1-(2-(2,4-difluorophenyl)-2-hydroxy-3-(1H-1,2,4-triazol-1-yl)propyl)-4-methylpiperidin-4-yl)-2-oxo-1-(4-phenyl-3,4-dihydro-2H-benzo[b][1,4]oxazin-6-yl)-1,2-dihydrothieno[2,3-b]pyrazine-6-carboxamide] | 4 µM | 4 µM | 1.3 nM | 1.5 µM (≈ 1.13 µg/mL) | 1.5 µM (≈ 1.13 µg/mL) | 23.6 nM
13 | Nc1nc2sc(-c3noc(C(=O)NN4CCN(CC(O)(Cn5cncn5)c5ccc(F)cc5F)CC4)n3)cc2n(-c2ccc3c(c2)N(c2ccccc2)CCO3)c1=O (centres unmarked) [Compound I-54, 3-(3-amino-2-oxo-1-(4-phenyl-3,4-dihydro-2H-benzo[b][1,4]oxazin-6-yl)-1,2-dihydrothieno[2,3-b]pyrazin-6-yl)-N-(4-(2-(2,4-difluorophenyl)-2-hydroxy-3-(1H-1,2,4-triazol-1-yl)propyl)piperazin-1-yl)-1,2,4-oxadiazole-5-carboxamide] | >10 µM | >10 µM | 73.5 nM | 0.6 µM (≈ 0.485 µg/mL) | 0.6 µM (≈ 0.485 µg/mL) | 339 nM
14 | Nc1nc2sc(CNCC3CCN(C[C@](O)(Cn4cncn4)c4ccc(F)cc4F)CC3)cc2n(-c2ccc3c(c2)N(c2ccccc2)CCO3)c1=O [Compound I-131, (S)-3-amino-6-((((1-(2-(2,4-difluorophenyl)-2-hydroxy-3-(1H-1,2,4-triazol-1-yl)propyl)piperidin-4-yl)methyl)amino)methyl)-1-(4-phenyl-3,4-dihydro-2H-benzo[b][1,4]oxazin-6-yl)thieno[2,3-b]pyrazin-2(1H)-one] | 9 µM | 9 µM | – | 1.25 µM (≈ 0.925 µg/mL) | 1.25 µM (≈ 0.925 µg/mL) | –
